Consider four molecules from patent US8673587B2, “Methods for identifying allosteric and other novel acyl-coenzyme A:cholesterol acyltransferase inhibitors” (Trustees of Dartmouth College, priority 2010, dated 2014).

By Km is commonly meant the substrate concentration at which the rate is half of its maximum.

Data set [1] deals with T1, HisACAT1/FLAG (recombinant hACAT1) (Homo sapiens, UniProt P35610, M1L).
T1 construct: hACAT1 contains 550 amino acids; made in house
T1 sequence (P35610 1-550 M1L): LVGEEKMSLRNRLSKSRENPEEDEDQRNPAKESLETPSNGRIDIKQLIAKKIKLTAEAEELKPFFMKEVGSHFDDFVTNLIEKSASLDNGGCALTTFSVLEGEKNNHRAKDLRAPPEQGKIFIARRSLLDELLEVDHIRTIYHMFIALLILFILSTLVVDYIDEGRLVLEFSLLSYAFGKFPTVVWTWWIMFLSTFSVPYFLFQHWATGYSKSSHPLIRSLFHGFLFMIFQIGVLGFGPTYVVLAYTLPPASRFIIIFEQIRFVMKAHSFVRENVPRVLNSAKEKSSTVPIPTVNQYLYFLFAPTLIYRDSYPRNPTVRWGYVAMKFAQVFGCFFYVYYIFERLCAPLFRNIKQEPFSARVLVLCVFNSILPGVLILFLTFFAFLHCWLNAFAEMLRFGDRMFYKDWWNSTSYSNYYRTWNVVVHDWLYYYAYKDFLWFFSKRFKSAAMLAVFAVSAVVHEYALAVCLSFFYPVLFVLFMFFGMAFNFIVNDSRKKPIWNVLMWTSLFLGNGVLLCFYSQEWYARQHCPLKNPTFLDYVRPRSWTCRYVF
Briefly: Ligand binding by change in intrinsic (tryptophan) fluorescence of HisACAT1/FLAG. From the text:
Fluorescence measurements were generated using an ISS PC1 photocounting fluorescence spectrophotometer (model 90095). This instrument has continuously reproducible slits ranging from 0.4 to 32 nm band-pass. The excitation slit width was set at 2 nm. The wavelength for excitation was set at 295 nm in order to minimize the contribution of tyrosine residues to the fluorescence. Purified HisACAT1/FLAG was concentrated using 30K AMICON centrifugal filters such that the final concentration of the protein was 100-200 ng/μL (1.5-3 μM). Purified protein was stored at −80° C. until used. Unless stated otherwise, the fluorescence measurements were performed at pH 7.8 with 50 mM potassium phosphate, 0.5M KCl, and 8.13 mM CHAPS. Sterol (cholesterol, epicholesterol, coprostanol, and epicoprostanol) was prepared as CHAPS/PC/sterol mixed micelles (with CHAPS at 8.13 mM, PC at 4 mM, and with varying concentrations of sterols as indicated) and stored at 20° C. in the dark until usage. The fatty acyl-CoAs were dissolved in 20 mM sodium acetate at pH 6.4 as a 2 mM stock and stored at −80° C. until used. Before the experiment started, all reagents were kept on ice in the dark. To begin the experiment, 50 μL of mixed micelles without or with sterols was added into a HELLMA microcuvette with 3 mm light path. Twenty-five microliters of ACAT1 protein (in 8.13 mM CHAPS and 0.5 M KCl) was then added and rapidly mixed. Fluorescence was monitored within 15 seconds of adding the enzyme. The sample compartment of the instrument was maintained at 20° C. The fluorescence emission spectrum was scanned in 2 minutes between 310 and 410 nm. The differences in fluorescence intensity at 10 intervals within 325-335 nm were averaged in order to calculate the ΔF value between the ligated protein vs that of the unligated protein.
Binding studies were subsequently conducted by monitoring the effect of increasing concentrations of oleoyl-CoA on the intrinsic fluorescence of HisACAT1/FLAG. […] However, the maximal change in the peak of the spectrum was much smaller (5% with respect to the unliganded protein). […] The data was analyzed for a simple bimolecular dissociation equilibrium using the PRISM program.
Binding experiments were subsequently performed by monitoring the effect of increasing concentrations of cholesterol, from 10 to 600 μM, on the intrinsic fluorescence of HisACAT1/FLAG. […] It was estimated that the cholesterol concentration that caused half-maximal spectral change was 35 μM. […] The changes in the intrinsic fluorescence of ACAT1 caused by cholesterol, epicholesterol, coprostanol, or epicoprostanol as the ligand were also compared.

For data set [2], the target named is T1, HisACAT1/FLAG (recombinant hACAT1). Kind of data set: Steady-state enzyme kinetics with fatty acyl-CoA as variable substrate, purified HisACAT1/FLAG. Type of data set: biochemical. The following applies: constant, saturating cholesterol in CHAPS/PC mixed micelles. The protocol: (§1) To monitor enzyme activity during enzyme purification, the enzyme solubilized in the detergent CHAPS was assayed in preformed taurocholate/cholesterol/phosphatidylcholine (PC) mixed micelles as described previously (Chang, C. C. et al. 1998. J. Biol. Chem. 273:35132-35141), with a final concentration of taurocholate at 9.3 mM, PC at 11.2 mM, and cholesterol at 1.6 mM. The amount of mixed micelle solution was used to dilute the detergent presented in the enzyme preparation, so the final CHAPS/PC molar ratio was less than 0.4. The fatty acyl-CoA substrate saturation curves and cholesterol substrate saturation curves were performed under the same conditions as described previously (Chang, C. C. et al. 1998. supra).
(§2) Prior to conducting binding experiments, steady-state enzyme kinetic experiments were conducted using purified HisACAT1/FLAG as the enzyme source and either oleoyl- (18:1) CoA or stearoyl- (18:0) CoA as the variable substrate, at a constant, saturating level of cholesterol in the CHAPS/PC mixed micelles.

The target in data set [3] is T2, histidine-tagged recombinant human ACAT2 (Homo sapiens, UniProt O75908).
T2 construct: made in house; partially purified on a nickel column
T2 sequence (O75908 1-522): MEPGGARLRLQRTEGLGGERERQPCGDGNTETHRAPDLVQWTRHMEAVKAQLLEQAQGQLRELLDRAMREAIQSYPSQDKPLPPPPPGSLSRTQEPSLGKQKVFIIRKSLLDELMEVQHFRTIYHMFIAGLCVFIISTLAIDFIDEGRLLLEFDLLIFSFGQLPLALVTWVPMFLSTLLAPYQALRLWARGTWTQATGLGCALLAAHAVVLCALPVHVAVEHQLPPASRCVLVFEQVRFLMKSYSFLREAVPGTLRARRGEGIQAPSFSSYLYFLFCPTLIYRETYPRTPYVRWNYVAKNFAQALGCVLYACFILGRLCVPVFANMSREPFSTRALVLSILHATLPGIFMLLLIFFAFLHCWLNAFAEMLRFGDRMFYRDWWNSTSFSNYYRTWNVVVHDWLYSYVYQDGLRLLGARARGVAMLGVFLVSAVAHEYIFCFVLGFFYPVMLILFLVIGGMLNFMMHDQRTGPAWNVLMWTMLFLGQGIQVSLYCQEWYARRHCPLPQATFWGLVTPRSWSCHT
Kind of data set: Pregnenolone esterification in mixed micelles, ACAT2 as enzyme source. The following applies: 1 μM [3H]-pregnenolone. Format: biochemical. From the text:
(§3) The method of the present invention was developed in experiments using a mixed micelle enzyme assay system. […] A candidate ACAT inhibitor is an allosteric inhibitor if it is shown in the method of the present invention to inhibit cholesterol-dependent pregnenolone esterification but not to inhibit the basal pregnenolone esterification when cholesterol is absent in the assay mixture. […] In the assay system of the present invention, the source of ACAT was histidine-tagged recombinant human ACAT1 or human ACAT2, stably expressed in Chinese hamster ovary (CHO) cells that lack endogenous ACAT activity. However, one of skill in the art could employ other suitable mammalian cell systems as needed. The enzyme preparations used in the present method were partially purified through the use of nickel column chromatography, as described previously (Liu et al. 2005. Biochem. J. 391:389-397), using cells that stably expressing histidine-tagged recombinant human ACAT1 or human ACAT2 as the enzyme source.
(§4) In developing the method of the present invention, a series of experiments was performed. Pregnenolone is one compound that contains the classical A, B, C, D steroid rings as well as a 3 beta-OH moiety. Based on its structure, pregnenolone may be an ACAT substrate. However, this possibility had not previously been tested experimentally. In the present invention, the activity of pregnenolone was tested by using radiolabeled pregnenolone ([^3H]-pregnenolone) in a mixed micelle enzyme assay mixture that contained the detergent taurocholate (or CHAPS), phosphatidylcholine, and oleyl-coenzyme A bound to bovine serum albumin (BSA). The enzyme used was histidine-tagged human ACAT1 or human ACAT2. The esterification of pregnenolone (i.e., formation of pregnenolone oleate) was monitored by performing lipid extraction to isolate [^3H]-pregnenolone oleate and [^3H]-pregnenolone. [^3H]-pregnenolone oleate was then separated from [^3H]-pregnenolone by using conventional thin-layer chromatography. Levels of [^3H]-pregnenolone oleate formed was measured using a scintillation counter. […] Thus, using ACAT1 as the enzyme source, the esterification of DHEA was examined (FIG. 1C).
(§5) To assay the enzyme, the pregnenolone/detergent/PC micelles and the cholesterol/detergent/PC micelles were prepared individually as follows: the radiolabeled pregnenolone/PC mixture or the cholesterol/PC mixture was prepared as described previously (Shi et al. 1989. Biochim. Biophys. Acta 982:187-195) and lyophilized to remove residual organic solvents. After lyophilization, the detergent sodium taurocholate (or other detergent such as CHAPS) in Buffer A was added to reach a final concentration of 10 mg/ml. The mixture was purged with nitrogen, followed by sonication until this mixture was clear. The pregnenolone/PC micelles were mixed with the cholesterol/PC micelles such that the cholesterol concentration is at 0 mM or at 0.32 mM, and the radioactive pregnenolone concentration is at 1 μM (specific activity 20 Ci/mmol).

The target in data set [4] is T3, histidine-tagged recombinant human ACAT1 (Homo sapiens, UniProt P35610, M1L).
T3 construct: hACAT-1 cDNA (nucleotide residues 1397-3046, a total of 550 amino acids); made in house; partially purified on a nickel column
T3 sequence (P35610 1-550 M1L): T1 sequence (P35610 1-550 M1L)
Kind of data set: Steroid (pregnenolone/DHEA/E2) esterification in mixed micelles, ACAT1 as enzyme source. Type of data set: biochemical. To be noted: for ACAT1 substrate activity: 1 μM [3H]-steroid.
From the text: as §3, §4
A pregnenolone substrate saturation curve was then constructed, with or without addition of cholesterol to the assay mixture, using ACAT1 as the enzyme source (FIG. 2A). […] Then, a DHEA substrate saturation curve was constructed, with cholesterol present.
Further experiments were performed to examine the effect of adding various non-oxysterols, at a concentration of 0.32 mM, on pregnenolone esterification in vitro, with ACAT1 as the enzyme source.
as §5

The target of a further data set is T4, ACAT1 (Homo sapiens, UniProt P35610, M1L).
T4 construct: hACAT-1 cDNA (nucleotide residues 1397-3046, a total of 550 amino acids); made in house; partially purified on a nickel column
T4 sequence (P35610 1-550 M1L): T1 sequence (P35610 1-550 M1L)
Kind of data set: Cholesterol esterification in vitro ([3H]-oleoyl-CoA/BSA labeled substrate), cholesterol substrate saturation curve. Format: biochemical. The following applies: pregnenolone added at 5 μM.

Substrate in data set [5]: CC(C)CCC[C@@H](C)[C@H]1CC[C@H]2[C@@H]3CC=C4C[C@@H](O)CC[C@]4(C)[C@H]3CC[C@]12C
Described as above. Type of data set: biochemical, human. The following applies: other: ACAT1.

Substrate in data set [6]: CCCCCCCCCCCCCCCCCC(=O)SCCNC(=O)CCNC(=O)[C@H](O)C(C)(C)COP(=O)(O)OP(=O)(O)OC[C@H]1O[C@@H](n2cnc3c(N)ncnc32)[C@H](O)[C@@H]1OP(=O)(O)O
Briefly: Steady-state enzyme kinetics with fatty acyl-CoA as variable substrate, purified HisACAT1/FLAG. Format: biochemical, human. To be noted: other: constant, saturating cholesterol in CHAPS/PC mixed micelles. Here is the method: as §1, §2

Substrate in data set [7]: CCCCCCCC/C=C\CCCCCCCC(=O)SCCNC(=O)CCNC(=O)[C@H](O)C(C)(C)COP(=O)(O)OP(=O)(O)OC[C@H]1O[C@@H](n2cnc3c(N)ncnc32)[C@H](O)[C@@H]1OP(=O)(O)O
The data set is described as above. Format: biochemical, human. The following applies: other: constant, saturating cholesterol in CHAPS/PC mixed micelles. The protocol: as §1, §2

The mark [8] stands for this setting: presence of excess cholesterol (0.32 mM).

In the case of `CCCCCCCC/C=C\CCCCCCCC(=O)SCCNC(=O)CCNC(=O)[C@H](O)C(C)(C)COP(=O)(O)OP(=O)(O)OC[C@H]1O[C@@H](n2cnc3c(N)ncnc32)[C@H](O)[C@@H]1OP(=O)(O)O` [oleoyl-CoA], in data set [1] (excitation 295 nm, peak 330 nm), the “maximal increase in fluorescence peak height with respect to unliganded ACAT1 protein” value is reported as “approximately 32%”. Moreover, the Kd in data set [1] (simple bimolecular dissociation equilibrium, PRISM, read-out: dissociation constant) came to 1900 nM. In addition, the “Vmax, fold higher than for stearoyl-CoA” value in data set [2] worked out at 2.4 fold.
Regarding `CC(=O)[C@H]1CC[C@H]2[C@@H]3CC=C4C[C@@H](O)CC[C@]4(C)[C@H]3CC[C@]12C` [pregnenolone], the ACAT2 substrate activity result is “very poor substrate” in data set [3] (absence of cholesterol) and “much better substrate” in data set [3] (setting [8]). For the same molecule, the “estimated Km, fold lower than that of cholesterol” value in data set [4] (ACAT1, cholesterol present) is given as 600 fold. Besides, the ACAT1 substrate activity result was “very poor substrate” in data set [4] (absence of cholesterol) and “much better substrate” in data set [4] (setting [8]). Further, the Km in data set [4] (with cholesterol present in vitro (0.32 mM), read-out: apparent Km as ACAT1 substrate) is roughly 1200 nM. Further, the “Km as ACAT1 substrate” value in data set [4] (without cholesterol present in vitro) is listed as “too high to be measurable”. For the same molecule, the “inhibition of cholesterol esterification” value on ACAT1 was 10-15%.

B1: ACAT1 (Homo sapiens; M1L) (protein)
chain: T1 sequence (P35610 1-550 M1L)
notes: hACAT-1 cDNA (nucleotide residues 1397-3046, a total of 550 amino acids); made in house; partially purified on a nickel column
In the case of B1, in data set [5], the Km was 0.3 mM.

B2: HisACAT1/FLAG (recombinant hACAT1) (Homo sapiens; M1L) (protein)
chain: T1 sequence (P35610 1-550 M1L)
notes: hACAT1 contains 550 amino acids; made in house
On to B2, for which the Km in data set [6] amounted to 6.4 µM; in data set [7] it was 1.3 µM.
